The Biogen ADME set (Fang et al. 2023)
Values after ≈ are worked out from the molar mass of the structure shown.

Details: for aqueous solubility: pH 6.8

SMILES | MDR1-MDCK efflux ratio | intrinsic clearance, human liver microsomes [mL/min/kg] | intrinsic clearance, rat liver microsomes [mL/min/kg] | aqueous solubility [µg/mL] | fraction unbound, human plasma | fraction unbound, rat plasma
O=C(c1sc(N2CCOCC2)nc1-c1ccccc1)N1CCCCC1 | 1.18 | 45 | 845 | 58.4 (≈ 163 µM) |  | 
O=C(Nc1ccccn1)c1ccc2c(c1)C(=O)N(C1CCCCC1)C2=O | 0.393 | 11.8 | 791 |  |  | 
Cc1nnc2ccc(N3CCC4(CCCCC4)C3)nn12 | 0.709 | 33.2 | 600 |  |  | 
Cc1cccc2cc(C(N)=S)/c(=N/Nc3ccccc3)oc12 |  |  |  | 0.48 (≈ 1.55 µM) |  | 
CCOc1ccccc1N/C=C1\C(=O)Oc2ccccc2C1=O |  |  |  | 0.66 (≈ 2.13 µM) |  | 
O=c1[nH]c2ccccc2n1C1CCN(CCOc2ccccc2)CC1 | 2.14 | 29.6 | 357 | 47.4 (≈ 140 µM) |  | 
CONC(=O)c1c(C)nn(C)c1Cl | 0.868 | ≤ 4.74 | ≤ 10.7 |  |  | 
CCOc1ccc(Nc2nc(-c3c(C)nc4ccccn34)cs2)cc1 | 0.134 | 159 | 451 | 45 (≈ 128 µM) |  | 
O=C(c1ccc2oc(CCCc3ccccc3)nc2c1)N1CCC(Oc2cccnc2)CC1 | 1.48 | 679 | 2090 | 24.3 (≈ 55 µM) |  | 
N#CC[C@H](C1CCCC1)n1cc(-c2ncnc3[nH]ccc23)cn1 | 10.9 |  | 405 | 34.5 (≈ 113 µM) | 0.0428 | 0.176
CCC(CC)NC(=O)c1ccc2ncsc2c1 | 0.527 | 7.3 | 20.5 | 22.2 (≈ 89.4 µM) |  | 
Cc1cc(N(C)Cc2ccc(N)nc2)nc(-c2ccncc2)n1 | 4.4 | 44.2 | 328 | 28.9 (≈ 94.5 µM) |  | 
Cc1nc(C)c(C)c(NCc2cc(-c3ccc(F)cc3)no2)n1 | 0.906 | 20.3 | 242 | 37.5 (≈ 120 µM) |  | 
Cc1oc(C)c(C(=O)Nc2ccn(C)n2)c1C | 0.597 | 75.4 | 93.7 | 36.7 (≈ 157 µM) |  | 
Cc1csc(N2CCN(Cc3ccc(OCC(F)(F)F)nc3)CC2)n1 | 0.655 | 22.7 | 106 | 31 (≈ 83.3 µM) |  | 
CCN1CCCN(C(=O)Nc2ccc(COC3CCCC3)cc2)CC1 | 9.16 | 6.32 | 287 |  |  | 
COC(=O)[C@@H]1C[C@H](O)CN1CCc1ccccc1F | 0.726 |  | 3370 | 56.8 (≈ 212 µM) |  | 
O=C(Nc1cccc2c(=O)cc(-c3nnn[nH]3)oc12)c1ccc(OCCCCc2ccccc2)cc1 |  | 21.1 |  |  | 0.0383 | 0.0592
CC(=O)N1CCN(c2nc(C(F)(F)F)nc3sc(C)c(C)c23)CC1 | 1.22 | 43 | 217 | 51.3 (≈ 143 µM) | 0.0136 | 0.0421

SMILES | MDR1-MDCK efflux ratio | intrinsic clearance, human liver microsomes [mL/min/kg] | intrinsic clearance, rat liver microsomes [mL/min/kg] | aqueous solubility [µg/mL] | fraction unbound, human plasma | fraction unbound, rat plasma
CN(C(=O)C1CCN(c2ncccn2)CC1)C1CCCCCCC1 | 0.85 | 519 | 3890 | 49.4 (≈ 150 µM) |  | 
c1cc2c(N3CCNCC3)nc(-c3ccnc(NC4CCCCC4)c3)cc2cn1 | 26.5 | 68.7 | 260 | 39.9 (≈ 103 µM) |  | 
CC(C)c1nnc(CNC(=O)C2(C)CCC2)n1C | 45.4 | ≤ 4.74 | ≤ 10.7 | 51.8 (≈ 207 µM) |  | 
NC(=O)C1(Cc2ccc(-c3cccnc3)cc2)CCN(Cc2cccc(Cl)c2)CC1 | 4.87 | 183 | 1360 | 83.8 (≈ 199 µM) |  | 
N#Cc1ncn(Cc2ncc(-c3ccccc3)s2)c1C#N |  |  |  | 44.5 (≈ 153 µM) |  | 
CCOc1ccc(CN[C@@H]2CCC[C@H]2Cc2cc(C)no2)cc1OC | 2.55 | 61.6 | 2220 |  |  | 
Nc1ccc(Cl)c(NC2=NN(c3c(Cl)cc(Cl)cc3Cl)C(=O)C2)c1 |  | 92.5 | 702 | 14.1 (≈ 34.8 µM) |  | 
CC(C)c1nnc(NCc2ccn(C)c2)o1 | 0.768 | ≤ 4.74 | 63.1 | 17.9 (≈ 81.2 µM) |  | 
Cc1ccnc(NC(=O)CN(C)c2ncnc3sc4c(c23)CCC(C)C4)c1 (centres undefined) |  |  |  | 3.88 (≈ 10.2 µM) |  | 
CCCn1cc(CN2CCC(c3nc(N(C)C)no3)CC2)cn1 | 1.14 | 21 | 146 |  |  | 
COC(=O)c1c(C)[nH]c(C(=O)OCC(=O)N(C)Cc2cccs2)c1C | 1.47 | 54.1 | 484 | 40.6 (≈ 111 µM) |  | 
C=CC[C@]1(O)CC[C@H]2[C@@H]3CCC4=CC(=O)CCC4=C3C=C[C@@]21C | 0.761 | 58.2 | 592 |  |  | 
CCN(C(=O)N1CCC(OC2CCOCC2)CC1)C(C)C | 0.763 | 21.6 | 155 | 56.1 (≈ 188 µM) |  | 
O=C1CCCN1c1ccc(S(=O)(=O)Nc2cccc(-c3nnc4n3CCC4)c2)cc1 | 9.93 |  |  |  |  | 
N#Cc1cccnc1NCCc1ccc(F)cc1 | 0.519 | 179 | 1150 | 2.69 (≈ 11.1 µM) |  | 
O=C(Nc1cccc(Cl)c1F)c1cccc(N2CCCC2=O)c1 |  | 82.8 | 894 | 3.4 (≈ 10.2 µM) |  | 
O=S(=O)(c1cccnc1)N1CCC2(Cc3ccccc3C2)C1 | 0.627 | 91.2 | 5070 |  |  | 
CCOc1cc2c(cc1CCC(=O)N1CCC(Cc3ncncc3C(N)=O)CC1)CCC2 |  | 564 | 1650 | 75.2 (≈ 172 µM) |  | 
Cc1nn(-c2ccc(F)cc2)c2ncc(C(=O)Nc3nc(C4CC4)cs3)cc12 |  | 5.68 | 32.4 | 5.35 (≈ 13.6 µM) |  | 

SMILES | MDR1-MDCK efflux ratio | intrinsic clearance, human liver microsomes [mL/min/kg] | intrinsic clearance, rat liver microsomes [mL/min/kg] | aqueous solubility [µg/mL] | fraction unbound, human plasma | fraction unbound, rat plasma
O=C1Oc2nc3cc4c(cc3cc2CN1CCN1CCOCC1)OCCO4 | 3.87 | ≤ 4.74 | ≤ 10.7 | 80.5 (≈ 217 µM) |  | 
CCc1[nH]nc(NC2CCC(C(=O)OC)CC2)c1C (centres undefined) | 0.826 | 523 | 296 |  |  | 
O=C1CCC(=O)N1Cc1nc(C23CC4CC(CC(C4)C2)C3)cs1 |  | 105 | 1400 | 42.8 (≈ 129 µM) |  | 
CCC(CC)N1CC[C@H](O)[C@@](O)(COc2cc(C)ccc2Cl)C1 | 1.18 | 371 | 4650 |  |  | 
Cc1oc(C)c(C(=O)NCC#Cc2ccccc2)c1C | 0.446 | 107 | 1320 | 48 (≈ 180 µM) |  | 
C=CCn1cnc2c(Cl)cc(-c3ccc(C(=O)NC4CC4)o3)cc21 | 5.09 | 27.5 | 115 | 33.2 (≈ 97 µM) |  | 
Cc1ccc(-n2c(S)nnc2-c2ccc(O)cc2)c(C)c1 | 34.6 | 10.1 | 129 | 28.9 (≈ 97.3 µM) |  | 
CC(C)c1cc(N(C)Cc2nc(C3CC3)n[nH]2)n[nH]1 | 16.1 | ≤ 4.74 | 36.7 |  |  | 
CC(C)(C)OC(=O)N1CC=C(CCC(=O)NO)C1 |  |  |  | 44 (≈ 172 µM) |  | 
NC(=O)c1csc(CN2CCc3cc(F)ccc3C2)c1 | 0.686 | 5.46 | 252 |  |  | 
Nc1ncc(C(=O)NC2CN(C(=O)C3CC3)C2)c2ccc(-c3cccc(F)c3)nc12 | 18.1 | ≤ 4.74 | 29.5 | 7.6 (≈ 18.7 µM) | 0.042 | 0.0241
O=C(NCc1ccc(F)cc1)C1(Cc2ccc(-c3cccnc3)cc2)CCOCC1 | 4.82 | 781 | 1970 | 87.5 (≈ 216 µM) |  | 
Fc1cccc2c1CN(Cc1c[nH]nc1-c1cccnc1)CC2 |  | 92.9 | 1240 |  |  | 
CC(C)c1noc(CNC(=O)N2C[C@H]3C[C@@H](C2)c2cccc(=O)n2C3)n1 | 3.14 | 7.35 | 73.7 |  |  | 
O=C(CCn1nnc2ccccc2c1=O)Nc1ccncc1 | 4.06 | 9.23 | 84.8 | 21.4 (≈ 72.3 µM) |  | 
O=C(NCCCn1ccnc1)N1CCC12CCC2 | 30.5 | ≤ 4.74 | 27.8 | 41.1 (≈ 166 µM) |  | 
Cc1nsc(NCc2cncs2)n1 | 0.684 | ≤ 4.74 | 16.8 |  |  | 
COc1cccc(Cc2cnc(N)s2)c1 | 0.671 | 17.8 | 281 |  |  | 
CCc1nnc2c3ccccc3nc(Nc3ccc(OC)cc3)n12 | 0.092 |  |  | 0.14 (≈ 0.438 µM) |  | 
